Test results taken from US20260042764A1, “COMPOSITIONS AND METHODS FOR INHIBITION OF KRAS” (TheRas, Inc., priority 2022, published 2026).

Key:
SW1900 cells (KRAS G12D) = assay: Cell-based pERK HTRF assay in SW1900 cells (Biological Example 5)
Description: Biological Example 5: Cell-based PERK HTRF assay in AsPC-1, SW1900, HPAC, Capan-2, RKN, H358, HCT116, KP-2, H1573, A549, MKN1, and HT1080 cells
The inhibition of ERK phosphorylation, as measured using the HTRF Advanced Phospho-ERK 1/2 (Thr202/Tyr204) Detection Assay kit (Perkin Elmer), was used to determine the effectiveness of test compounds in disrupting KRAS-driven protein/effector signaling in cells.
On day 1, cells were seeded into 96-well plates at 2.5×10^4 cells/well in 100 μL of complete growth media supplemented with 10% fetal bovine serum (FBS) and incubated at 37° C., in the presence of 5% CO2.
On day 2, cells were treated with compounds diluted in DMSO at 0.25% final DMSO concentration. Compounds were dosed in a 9-point concentration curve with three-fold dilution between concentrations. Cells were incubated in the presence of compound for two hours at 37° C. Following this treatment period, cells were harvested by aspirating the media, adding 40 μL of kit-supplied 1x lysis buffer per well, and shaking for 30 minutes at 250 rpm at room temperature.
Following cell lysis, samples were homogenized by pipetting up and down twenty times and 16 μL of cell lysate per well was transferred from the 96-well cell culture plate to two wells of a 384-well detection plate. A complete detection buffer was prepared by diluting D2 and Eu Cryptate antibodies 1:20 in kit-provided detection solution, 4 μL of complete detection buffer was then added to each well with lysate. Plates were incubated with gentle rocking for 24 hours at 4° C.
Following this incubation period, plates were centrifuged at 500×g for one minute and analyzed on a CLARIOstar plate reader. Data was imported into Microsoft Excel and the signal from the 665 nm channel was divided by the signal from the 620 nm channel. % pERK was calculated as: […]
Data was imported to the Prism software package (Graphpad) and EC50 values were calculated using the log (inhibitor) vs, response—variable slopc (Four parameters) model.

[1] = target: T1, Avi-KRAS WT (1-169) GppNHp/RAF1 RBD-3xFLAG (52-151) (Homo sapiens, UniProt P01116); assay: Raf1-KRAS WT-GppNHP disruption HTRF assay (Biological Example 1); assay type: binding
T1 construct: Avi-KRAS WT (1-169)
Outline: (§1)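 HTRF PPI disruption; buffer 50 mM Tris pH 7.5, 100 mM NaCl, 5 mM MgCl2, 0.1% BSA, 0.01% Tween, 10% DMSO. Protein mix 1 h RT shaking, reagent mix 1 h RT shaking. Data as % activity vs DMSO (100%).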

SW620 cells (KRAS G12V) = assay: Cell-based pERK HTRF assay in SW620 cell (Biological Example 4)
Outline: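 Read-out: HTRF pERK signal (excitation 320 nm, emission 615 nm) from lysates of SW620 cells after 4 h compound exposure. Dose range was 9 points, half-log steps from 1 μM, in 0.25% DMSO; antibody incubation ran 4–24 h at room temperature.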

HCT116 cells (KRAS G13D) = assay: 3D Cell viability assay in HCT116 cells (Biological Example 6); assay type: cell-based; details: Homo sapiens, HCT-116; HCT116 (KRAS G13D) spheroids, 72 hours
Description: Biological Example 6: 3D Cell viability assay in AsPC-1, SW1900, HPAC, Capan-2, RKN, H358, HCT116, KP-2, H1573, A549, MKN1, and HT1080 cells
The inhibition of cellular viability as a result of test compound treatment in a spheroid assay was measured using the CellTiter-Glow 3D Cell Viability Assay (Promega).
On Day 1, 1000 cells per well were seeded in 150 μL of complete growth media supplemented with 10% fetal bovine serum (FBS) and incubated at 37° C., in the presence of 5% CO2 in 96-well ultra-low attachment microplates (Corning) for 48 hours undisturbed to allow spheroids to form.
Following spheroid formation, cells were treated with compounds diluted in DMSO at 0.25% final DMSO concentration. Compounds were dosed in a 9-point concentration curve with three-fold dilution between concentrations. Cells were incubated in the presence of compound for 72 hours at 37° C., in the presence of 5% CO2.
Following this incubation period, the kit-provided CTG reagent was allowed to equilibrate for 30 minutes at room temperature, 150 μL of equilibrated CTG reagent was added to each well, and the plate was sealed before shaking at 250 rpm for 10 minutes at room temperature to lyse the cells, 150 μL of lysate per well was transferred to a 96-well plate and luminescence was read on a CLARIOstar plate reader.
Data was imported into the Prism software package (Graphpad) and EC50 values were calculated using the log (inhibitor) vs, response—variable slope (Four parameters) model.

[2] = target: T2, Avi-KRAS G12D (1-169) GppNHp/RAF1 RBD-3xFLAG (52-151) (Homo sapiens, UniProt P01116, G12D); assay: Raf1-KRAS G12D-GppNHP disruption HTRF assay (Biological Example 1); assay type: binding
T2 construct: Avi-KRAS G12D (1-169)
Outline: as §1

[3] = Homo sapiens, SW1990, SW1990 cells (text: SW1900, KRAS G12D)
[4] = Homo sapiens, SW-620, SW620 (KRAS G12V) cells
[5] = Homo sapiens, SW-620, SW620 (KRAS G12V) cells, pERK HTRF

T1 sequence (P01116 1-169 isoform P01116-2): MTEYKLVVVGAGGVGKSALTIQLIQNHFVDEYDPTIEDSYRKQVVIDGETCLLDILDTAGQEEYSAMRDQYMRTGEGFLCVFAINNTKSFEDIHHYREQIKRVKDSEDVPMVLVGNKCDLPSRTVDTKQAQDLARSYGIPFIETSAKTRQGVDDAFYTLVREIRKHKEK
T2 sequence (P01116 1-169 isoform P01116-2 G12D): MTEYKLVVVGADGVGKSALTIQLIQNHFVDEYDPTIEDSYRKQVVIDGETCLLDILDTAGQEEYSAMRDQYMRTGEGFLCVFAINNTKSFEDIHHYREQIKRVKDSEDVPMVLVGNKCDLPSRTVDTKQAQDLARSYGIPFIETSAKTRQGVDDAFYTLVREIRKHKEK

CCN(c1nc(OC[C@@]23CCCN2C[C@H](F)C3)nc2c(F)c(-c3ccc(F)c4sc(N)c(C#N)c34)c(C(F)(F)F)cc12)[C@@H]1CCN(C(C)=O)C1 [Compound 268]
IC50 (SW1900 cells (KRAS G12D); [3]): ≤ 100 nM | IC50 ([1]; KRAS WT, GppNHp-loaded, Table 11): < 100 nM | IC50 (SW620 cells (KRAS G12V); [4]): < 100 nM | IC50 (SW620 cells (KRAS G12V); [5]): < 100 nM | IC50 (HCT116 cells (KRAS G13D)): 100 to 1000 nM | IC50 ([2]; KRAS G12D, GppNHp-loaded, Table 11): < 100 nM

CCN(c1nc(OC[C@@]23CCCN2C[C@H](F)C3)nc2c(F)c(-c3ccc(F)c4sc(N)c(C#N)c34)c(Cl)cc12)[C@@H]1CCN(C(C)=O)[C@@H]1C [Compound 323]
IC50 (SW1900 cells (KRAS G12D); [3]): ≤ 100 nM | IC50 ([1]; KRAS WT-GppNHp/RAF1 RBD HTRF): 100 to 1000 nM | IC50 (SW620 cells (KRAS G12V); [5]): < 100 nM | IC50 (HCT116 cells (KRAS G13D)): 100 to 1000 nM | IC50 ([2]; KRAS G12D-GppNHp/RAF1 RBD HTRF): 100 to 1000 nM

CCN(c1nc(OC[C@@]23CCCN2C[C@H](F)C3)nc2c(F)c(-c3ccc(F)c4sc(N)c(C#N)c34)c(C(F)(F)F)cc12)[C@H]1CCN(C(=O)C(C)C)C1 [Compound 332]
IC50 (SW1900 cells (KRAS G12D); SW1990 cells (text: SW1900, KRAS G12D)): ≤ 100 nM | IC50 ([1]; KRAS WT-GppNHp/RAF1 RBD HTRF): < 100 nM | IC50 (SW620 cells (KRAS G12V); [4]): < 100 nM | IC50 (SW620 cells (KRAS G12V); SW620 (KRAS G12V) cells, pERK HTRF): < 100 nM | IC50 (HCT116 cells (KRAS G13D)): 100 to 1000 nM | IC50 ([2]; KRAS G12D-GppNHp/RAF1 RBD HTRF): < 100 nM

CCN(c1nc(OC[C@@]23CCCN2C[C@H](F)C3)nc2c(F)c(-c3ccc(F)c4sc(N)c(C#N)c34)c(Cl)cc12)[C@@H]1CCN(C(=O)C2CC2)[C@@H]1C [Compound 337]
IC50 (SW1900 cells (KRAS G12D); [3]): ≤ 100 nM | IC50 ([1]; KRAS WT-GppNHp/RAF1 RBD HTRF): 100 to 1000 nM | IC50 (SW620 cells (KRAS G12V); [5]): < 100 nM | IC50 (HCT116 cells (KRAS G13D)): 100 to 1000 nM | IC50 ([2]; KRAS G12D-GppNHp/RAF1 RBD HTRF): 100 to 1000 nM

CN(Cc1cccnc1N)c1nc(OC[C@@]23CCCN2C[C@H](F)C3)nc2c(F)c(-c3ccc(F)c4sc(N)c(C#N)c34)c(C(F)(F)F)cc12 [Compound 390]
IC50 (SW1900 cells (KRAS G12D); [3]): ≤ 100 nM | IC50 ([1]; KRAS WT-GppNHp/RAF1 RBD HTRF): 100 to 1000 nM | IC50 (SW620 cells (KRAS G12V); [5]): < 100 nM | IC50 (HCT116 cells (KRAS G13D)): 100 to 1000 nM | IC50 ([2]; KRAS G12D-GppNHp/RAF1 RBD HTRF): 100 to 1000 nM

N#Cc1cnn2c1CN(c1nc(OC[C@@]34CCCN3C[C@H](F)C4)nc3c(F)c(-c4ccc(F)c5sc(N)c(C#N)c45)c(C(F)(F)F)cc13)CC2 [Compound 392]
IC50 (SW1900 cells (KRAS G12D); [3]): ≤ 100 nM | IC50 ([1]; KRAS WT-GppNHp/RAF1 RBD HTRF): 100 to 1000 nM | IC50 (SW620 cells (KRAS G12V); [5]): < 100 nM | IC50 (HCT116 cells (KRAS G13D)): 100 to 1000 nM | IC50 ([2]; KRAS G12D-GppNHp/RAF1 RBD HTRF): 100 to 1000 nM
